Measured values as given in US5656591A, “Antimicrobial agents and method for treating products therewith” (Morinaga Milk Industry Co., Ltd., priority 1992, dated 1997).

Legend:
Escherichia coli 0-111 = test: Test for antimicrobial activity (turbidity): growth inhibiting concentration of antibiotics; format: cell-based
Description: (§1) Precultures of test microorganisms to be used in the tests described hereunder were prepared in such a manner that: from the frozen preservation of dispersions of test microorganisms, a loop of the respective strains of the microorganisms were taken out and spread onto TRI PETIT CASE SOYA AGAR MEDIA (by BBL Company), and incubated at 37° C. for 16 hours; the colonies grown on the culture media were scraped by a platinum loop and cultivated in 2.1% Mueller-Hington Broth (by Difco Company) respectively for several hours at 37° C. The resultant microbial cultures at logarithmic phase in 3×10^8 /ml of microbial concentration were used as the precultures.
(§2) The test media to be used in the respective tests were prepared in such a manner that: aqueous solutions in a predetermined concentration of the lactoferrin hydrolysates or the lactoferrin-derived antimicrobial peptides of (1) and (2) in Preparation of Samples (supra), as well as the samples of antibiotics of (3) (supra) were respectively sterilized with filters (by Advantec Company); then a quantity of the resultant solutions of respective samples were selectively added to a quantity of basal medium (Mueller-Hington Broth) prepared in the eventual concentration of 2.1%, thereby combinations of the samples and their concentrations in the respective test media were adjusted as specified in the respective tests.
(§3) Antimicrobial activity was examined as follows: A quantity of the respective precultures prepared in (1) immediately above was diluted with 2.1% Mueller-Hington Broth to result in 2×10^6 /ml of microbial concentration; 100 μl aliquots of the resultant liquid were added to 100 μl aliquots of one of the test media as specified in the respective test; the resultant media were incubated at 37° C. for 16 hours; then the turbidity of the resultant culture broths were measured thereby antimicrobial activity was examined.
(§4) Components in the test and control media and eventual concentrations thereof were adjusted by properly combining 0 mg, 0.4 mg, 1.6 mg and 6.4 mg/ml of lactoferrin hydrolysate of (1) (in Preparation of Samples, supra). or 0 μg, 16 μg, 64 μg, and 256 μg/ml of lactoferrin-derived antimicrobial peptides of (2) (in Preparation of Samples, supra), and 0 μg, 0.01 μg, 0.1 μg, 1 μg, and 10 μg/ml of antibiotics of (3) (supra), then antimicrobial activity of the combined use of the components against Escherichia coli 0-111 and Staphylococcus aureus (JCM2151) as well as growth inhibiting concentrations of the antibiotics were investigated.

[1] = test system: Staphylococcus aureus JCM2151; test: as above; format: cell-based; conditions: for MIC: Staphylococcus aureus
Description: as §1, §2, §3, §4

[2] = antimicrobial peptide (Seq. ID No. 27) 0 μg/ml
[3] = antimicrobial peptide (Seq. ID No. 27) 16 μg/ml
[4] = antimicrobial peptide (Seq. ID No. 27) 64 μg/ml
[5] = antimicrobial peptide (Seq. ID No. 27) 256 μg/ml
[6] = lactoferrin hydrolysate 0 mg/ml
[7] = lactoferrin hydrolysate 0.4 mg/ml
[8] = lactoferrin hydrolysate 1.6 mg/ml
[9] = lactoferrin hydrolysate 6.4 mg/ml
[10] = Escherichia coli, 0111, antimicrobial peptide (Seq. ID No. 27) 0 μg/ml
[11] = Escherichia coli, 0111, antimicrobial peptide (Seq. ID No. 27) 16 μg/ml
[12] = Escherichia coli, 0111, antimicrobial peptide (Seq. ID No. 27) 64 μg/ml
[13] = Escherichia coli, 0111, antimicrobial peptide (Seq. ID No. 27) 256 μg/ml
[14] = JCM2151, antimicrobial peptide (Seq. ID No. 27) 0 μg/ml
[15] = JCM2151, antimicrobial peptide (Seq. ID No. 27) 16 μg/ml
[16] = JCM2151, antimicrobial peptide (Seq. ID No. 27) 64 μg/ml
[17] = JCM2151, antimicrobial peptide (Seq. ID No. 27) 256 μg/ml

Compound | Growth inhibiting Concentration of antibiotics (Escherichia coli 0-111; [2]) | Growth inhibiting Concentration of antibiotics (Escherichia coli 0-111; [3]) | Growth inhibiting Concentration of antibiotics (Escherichia coli 0-111; [4]) | Growth inhibiting Concentration of antibiotics (Escherichia coli 0-111; [5]) | Growth inhibiting Concentration of antibiotics (Escherichia coli 0-111; [6]) | Growth inhibiting Concentration of antibiotics (Escherichia coli 0-111; [7]) | Growth inhibiting Concentration of antibiotics (Escherichia coli 0-111; [8]) | Growth inhibiting Concentration of antibiotics (Escherichia coli 0-111; [9]) | Growth inhibiting Concentration of antibiotics [1, 2] | Growth inhibiting Concentration of antibiotics [1, 3] | Growth inhibiting Concentration of antibiotics [1, 4] | Growth inhibiting Concentration of antibiotics [1, 5] | Growth inhibiting Concentration of antibiotics [1, 6] | Growth inhibiting Concentration of antibiotics [1, 7] | Growth inhibiting Concentration of antibiotics [1, 8] | Growth inhibiting Concentration of antibiotics [1, 9] | MIC (Escherichia coli 0-111; [10]) | MIC (Escherichia coli 0-111; [11]) | MIC (Escherichia coli 0-111; [12]) | MIC (Escherichia coli 0-111; [13]) | also measured
CN(C)[C@@H]1C(=O)C(C(N)=O)=C(O)[C@@]2(O)C(=O)C3=C(O)c4c(O)cccc4C(C)(O)[C@H]3C[C@@H]12 (some centres unmarked) [hostacyclin] | 1 µg/mL | 1 µg/mL | 1 µg/mL | 0.1 µg/mL | 1 µg/mL | 1 µg/mL | 1 µg/mL | 0.1 µg/mL | 1 µg/mL | 1 µg/mL | 1 µg/mL | 0.1 µg/mL | 1 µg/mL | 1 µg/mL | 1 µg/mL | 0.1 µg/mL | – | – | – | – | –
NC[C@H]1O[C@H](O[C@H]2[C@H](O)[C@@H](O[C@H]3O[C@H](CO)[C@@H](O)[C@H](N)[C@H]3O)[C@H](N)C[C@@H]2N)[C@H](O)[C@@H](O)[C@@H]1O [kanamycin] | – | – | – | – | > 1 µg/mL | > 1 µg/mL | 1 µg/mL | 0.1 µg/mL | – | – | – | – | > 1 µg/mL | > 1 µg/mL | > 1 µg/mL | 0.1 µg/mL | > 1 µg/mL | > 1 µg/mL | 1 µg/mL | 0.01 µg/mL | MIC [1, 14]: > 1 µg/mL; MIC [1, 15]: > 1 µg/mL; MIC [1, 16]: 1 µg/mL; MIC [1, 17]: 0.01 µg/mL
COc1cccc(OC)c1C(=O)N[C@@H]1C(=O)N2[C@@H]1SC(C)(C)[C@@H]2C(=O)O [staphcillin] | – | – | – | – | > 1 µg/mL | > 1 µg/mL | > 1 µg/mL | 0.1 µg/mL | – | – | – | – | > 1 µg/mL | > 1 µg/mL | > 1 µg/mL | 0.1 µg/mL | > 1 µg/mL | > 1 µg/mL | 1 µg/mL | 0.01 µg/mL | MIC [1, 14]: > 1 µg/mL; MIC [1, 15]: > 1 µg/mL; MIC [1, 16]: 1 µg/mL; MIC [1, 17]: 0.01 µg/mL
gentamicin | 1 µg/mL | 1 µg/mL | 0.1 µg/mL | 0.1 µg/mL | 1 µg/mL | 1 µg/mL | 0.1 µg/mL | 0.1 µg/mL | 1 µg/mL | 0.1 µg/mL | 0.1 µg/mL | 0.1 µg/mL | 1 µg/mL | 0.1 µg/mL | 0.1 µg/mL | 0.1 µg/mL | – | – | – | – | –
polymyxin B | > 1 µg/mL | > 1 µg/mL | 0.1 µg/mL | 0.1 µg/mL | > 1 µg/mL | > 1 µg/mL | 0.1 µg/mL | 0.01 µg/mL | > 1 µg/mL | 0.1 µg/mL | 0.1 µg/mL | 0.1 µg/mL | > 1 µg/mL | 0.1 µg/mL | 0.1 µg/mL | 0.1 µg/mL | – | – | – | – | –
